Measured values taken from PubChem BioAssay AID1963864 (Molecular Pharmacology Branch, DTP, NCI, 2024).

Tested on: KRAS PDC multicell spheroid viability
Test: Anticancer human tumor 521955-158-R6-J3-PDC patient-derived pancreatic carcinoma cell line growth inhibition [KRAS2]
Settings: for IC50: curve of first compound; for viability, T/C: stronger effect = lower value
Procedure, shortened: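 KRAS-mutant tumor cells were grown as spheroids with HUVEC endothelial cells and human MSCs as stroma. Targeted agents were tested alone and with KRAS pathway inhibitors. Doses started at or near clinical Cmax, or 10 microM, descending half-log.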

[1] = second compound 0.1 µM, first compound 0.0316 µM
[2] = second compound 0.1 µM, first compound 0.1 µM
[3] = second compound 0.1 µM, first compound 0.316 µM
[4] = second compound 0.1 µM, first compound 1 µM
[5] = second compound 0.1 µM, first compound 3.16 µM
[6] = second compound 0.1 µM, first compound 10 µM
[7] = second compound 0.316 µM, first compound 0.0316 µM
[8] = second compound 0.316 µM, first compound 0.1 µM
[9] = second compound 0.316 µM, first compound 0.316 µM
[10] = second compound 0.316 µM, first compound 1 µM
[11] = second compound 0.316 µM, first compound 3.16 µM
[12] = second compound 0.316 µM, first compound 10 µM
[13] = second compound 1 µM, first compound 0.0316 µM
[14] = second compound 1 µM, first compound 0.1 µM
[15] = second compound 1 µM, first compound 0.316 µM
[16] = second compound 1 µM, first compound 1 µM
[17] = second compound 1 µM, first compound 3.16 µM
[18] = second compound 1 µM, first compound 10 µM
[19] = second compound 3.16 µM, first compound 0.0316 µM
[20] = second compound 3.16 µM, first compound 0.1 µM
[21] = second compound 3.16 µM, first compound 0.316 µM
[22] = second compound 3.16 µM, first compound 1 µM
[23] = second compound 3.16 µM, first compound 3.16 µM
[24] = second compound 3.16 µM, first compound 10 µM
[25] = second compound 10 µM, first compound 0.0316 µM
[26] = second compound 10 µM, first compound 0.1 µM
[27] = second compound 10 µM, first compound 0.316 µM
[28] = second compound 10 µM, first compound 1 µM
[29] = second compound 10 µM, first compound 3.16 µM
[30] = second compound 10 µM, first compound 10 µM
[31] = second compound 0.1 µM, first compound 0.000316 µM
[32] = second compound 0.1 µM, first compound 0.001 µM
[33] = second compound 0.1 µM, first compound 0.00316 µM
[34] = second compound 0.1 µM, first compound 0.01 µM
[35] = second compound 0.316 µM, first compound 0.000316 µM
[36] = second compound 0.316 µM, first compound 0.001 µM
[37] = second compound 0.316 µM, first compound 0.00316 µM
[38] = second compound 0.316 µM, first compound 0.01 µM
[39] = second compound 1 µM, first compound 0.000316 µM
[40] = second compound 1 µM, first compound 0.001 µM
[41] = second compound 1 µM, first compound 0.00316 µM
[42] = second compound 1 µM, first compound 0.01 µM
[43] = second compound 3.16 µM, first compound 0.000316 µM
[44] = second compound 3.16 µM, first compound 0.001 µM
[45] = second compound 3.16 µM, first compound 0.00316 µM
[46] = second compound 3.16 µM, first compound 0.01 µM
[47] = second compound 10 µM, first compound 0.000316 µM
[48] = second compound 10 µM, first compound 0.001 µM
[49] = second compound 10 µM, first compound 0.00316 µM
[50] = second compound 10 µM, first compound 0.01 µM
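Further: drug exposure lasted seven days.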
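Wherever viability, T/C is given: 100% = DMSO vehicle wells and lower means fewer viable cells.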

SMILES | IC50 (second compound 0.1 µM) [nM] | IC50 (second compound 0.316 µM) [nM] | IC50 (second compound 1 µM) [nM] | IC50 (second compound 3.16 µM) [nM] | IC50 (second compound 10 µM) [nM] | viability, T/C [1] [%] | viability, T/C [2] [%] | viability, T/C [3] [%] | viability, T/C [4] [%] | viability, T/C [7] [%] | viability, T/C [8] [%] | viability, T/C [9] [%] | viability, T/C [10] [%] | viability, T/C [13] [%] | viability, T/C [14] [%] | viability, T/C [15] [%] | viability, T/C [19] [%] | viability, T/C [20] [%] | viability, T/C [25] [%] | viability, T/C [26] [%] | other results
CC(C)NCC(C(=O)N1CCN(c2ncnc3c2C(C)CC3O)CC1)c1ccc(Cl)cc1 (stereo not given) + CNCc1ccccc1-c1csc(C(C)Nc2nc(C)nc3cc(OC)c(OC)cc23)c1 | > 10000 | > 10000 | > 10000 | < 31.6 | < 31.6 | 88.1 | 84.2 | 74.7 | 69.8 | 74.9 | 80 | 64.8 | 64.5 | 77.6 | 62.7 | 67.6 | 0.31 | 0.37 | 0.16 | 0.14 | viability, T/C [5]: 80.4%; viability, T/C [6]: 70.2%; viability, T/C [11]: 66.7%; viability, T/C [12]: 63%; viability, T/C [16]: 64.3%; viability, T/C [17]: 66.9%; viability, T/C [18]: 61.4%; viability, T/C [21]: 0.26%; viability, T/C [22]: 0.31%; viability, T/C [23]: 1.96%; viability, T/C [24]: 0.86%; viability, T/C [27]: 0.24%; viability, T/C [28]: 0.25%; viability, T/C [29]: 0.16%; viability, T/C [30]: 0.27%
CC(C)n1nc(-c2ccc3oc(N)nc3c2)c2c(N)ncnc21 + CNCc1ccccc1-c1csc(C(C)Nc2nc(C)nc3cc(OC)c(OC)cc23)c1 | 77.2 | 41.3 | 64.8 | < 0.316 | < 0.316 | 63.3 | 46.2 | – | – | 54.3 | 42.1 | – | – | 54.6 | 47.2 | – | 1.57 | 1.6 | 0.16 | 0.24 | viability, T/C [31]: 88.1%; viability, T/C [32]: 89.9%; viability, T/C [33]: 81.2%; viability, T/C [34]: 71.2%; viability, T/C [35]: 82.3%; viability, T/C [36]: 81.1%; viability, T/C [37]: 74.6%; viability, T/C [38]: 61.1%; viability, T/C [39]: 78.5%; viability, T/C [40]: 73%; viability, T/C [41]: 73.6%; viability, T/C [42]: 64.2%; viability, T/C [43]: 1.65%; viability, T/C [44]: 1.07%; viability, T/C [45]: 1.66%; viability, T/C [46]: 1.02%; viability, T/C [47]: 0.75%; viability, T/C [48]: 0.17%; viability, T/C [49]: 0.16%; viability, T/C [50]: 0.15%
CC1(C)CCC(CN2CCN(c3ccc(C(=O)NS(=O)(=O)c4ccc(NCC5CCOCC5)c([N+](=O)[O-])c4)c(Oc4cnc5[nH]ccc5c4)c3)CC2)=C(c2ccc(Cl)cc2)C1 + CNCc1ccccc1-c1csc(C(C)Nc2nc(C)nc3cc(OC)c(OC)cc23)c1 | 6690 | 5170 | 3810 | < 31.6 | < 31.6 | 98.5 | 98.1 | 94.6 | 97.1 | 96.8 | 90.5 | 90.2 | 84.2 | 83 | 83.6 | 84.4 | 0.59 | 1.4 | 0.22 | 0.61 | viability, T/C [5]: 81.3%; viability, T/C [6]: 32.9%; viability, T/C [11]: 71%; viability, T/C [12]: 23.2%; viability, T/C [16]: 82.6%; viability, T/C [17]: 56.8%; viability, T/C [18]: 14.7%; viability, T/C [21]: 0.57%; viability, T/C [22]: 0.81%; viability, T/C [23]: 1.65%; viability, T/C [24]: 3.03%; viability, T/C [27]: 0.21%; viability, T/C [28]: 0.23%; viability, T/C [29]: 1.01%; viability, T/C [30]: 0.27%
CCN1CCN(Cc2ccc(Nc3ncc(F)c(-c4cc(F)c5nc(C)n(C(C)C)c5c4)n3)nc2)CC1 + CNCc1ccccc1-c1csc(C(C)Nc2nc(C)nc3cc(OC)c(OC)cc23)c1 | > 1000 | > 1000 | 317 | < 3.16 | < 3.16 | 70.5 | 67.1 | 72.1 | 102 | 74.1 | 68 | 67.5 | 80.2 | 63.5 | 53.8 | 54.8 | 0.51 | 0.75 | 0.3 | 0.21 | viability, T/C [33]: 75.1%; viability, T/C [34]: 77.8%; viability, T/C [37]: 77.7%; viability, T/C [38]: 71.9%; viability, T/C [41]: 66.8%; viability, T/C [42]: 70.3%; viability, T/C [16]: 30.8%; viability, T/C [45]: 0.3%; viability, T/C [46]: 0.38%; viability, T/C [21]: 0.45%; viability, T/C [22]: 0.37%; viability, T/C [49]: 0.25%; viability, T/C [50]: 0.26%; viability, T/C [27]: 0.22%; viability, T/C [28]: 0.46%
CCNC(=O)CC1N=C(c2ccc(Cl)cc2)c2cc(OC)ccc2-n2c(C)nnc21 (stereo not given) + CNCc1ccccc1-c1csc(C(C)Nc2nc(C)nc3cc(OC)c(OC)cc23)c1 | > 10000 | > 10000 | > 10000 | < 31.6 | < 31.6 | 96.3 | 90.5 | 67.6 | 69.5 | 82.3 | 71.9 | 72.4 | 61 | 71.3 | 62 | 61.6 | 0.29 | 0.34 | 0.2 | 0.18 | viability, T/C [5]: 68.1%; viability, T/C [6]: 73.8%; viability, T/C [11]: 65.8%; viability, T/C [12]: 69.5%; viability, T/C [16]: 62.8%; viability, T/C [17]: 74.3%; viability, T/C [18]: 73%; viability, T/C [21]: 0.34%; viability, T/C [22]: 0.43%; viability, T/C [23]: 0.28%; viability, T/C [24]: 0.8%; viability, T/C [27]: 0.16%; viability, T/C [28]: 0.17%; viability, T/C [29]: 0.21%; viability, T/C [30]: 0.28%
Cn1ncnc1[C@H]1c2n[nH]c(=O)c3cc(F)cc(c23)N[C@@H]1c1ccc(F)cc1 + CNCc1ccccc1-c1csc(C(C)Nc2nc(C)nc3cc(OC)c(OC)cc23)c1 | > 100 | > 100 | > 100 | < 0.316 | < 0.316 | 85.9 | 90.6 | – | – | 80.5 | 72.2 | – | – | 78.4 | 70.2 | – | 1.22 | 1.42 | 0.21 | 0.26 | viability, T/C [31]: 96.3%; viability, T/C [32]: 93.7%; viability, T/C [33]: 85.5%; viability, T/C [34]: 92.1%; viability, T/C [35]: 89.1%; viability, T/C [36]: 82.2%; viability, T/C [37]: 91.1%; viability, T/C [38]: 80%; viability, T/C [39]: 68.3%; viability, T/C [40]: 78.4%; viability, T/C [41]: 72.2%; viability, T/C [42]: 74.4%; viability, T/C [43]: 0.28%; viability, T/C [44]: 2.23%; viability, T/C [45]: 0.7%; viability, T/C [46]: 0.93%; viability, T/C [47]: 0.15%; viability, T/C [48]: 0.17%; viability, T/C [49]: 0.15%; viability, T/C [50]: 0.86%
